Experimental data: patent publication US20050176091A1, “Process for producing kiss-1 peptide” (priority 2002, published 2005)
Where no end group is shown, it is not given here.

System: intracellular Ca ion concentration
Experiment: Biological activity assay: intracellular Ca ion concentration-increasing activity (method of Example 3 of WO 99/33976)
Format: cell-based
Settings: compared with a sample purified from human placenta extract

Substance: KiSS-1 peptide: Human KiSS-1 peptide (SEQ ID NO: 1) obtained in Example 2 by S-cyanylation and ammonolysis of a fused protein expressed in E. coli (GTSLSPPPESSGSRQQPGLSAPHSRQIPAPQGAVLVQREKDLPNYNWNSFGLRF-NH2)
- intracellular Ca ion concentration-increasing activity: equivalent to that of a sample purified from human placenta extract
